This is an account of results in patent publication US4885239A, “Rapid differentiation of bacteria using polyether antibiotics” (Eastman Kodak Company, priority 1986, dated 1989).

One assay relates to E. coli (gram -). The experiment in a line: inhibition of the reduction of RIND IX (Example 7), E. coli. Type of assay: cell-based, Escherichia coli (ATCC 25922). Particulars: about 1.7×10^-4 molar, calcium chloride, 635 nm, 30 minutes, 37° C. The protocol: (§1) gram-negative bacteria Enterobacter cloacae (ATCC 23355), Escherichia coli (ATCC 25922), Proteus vulgaris (ATCC 13315), Klebsiella pneumoniae (ATCC 13883) and Pseudomonas aeruginosa (ATCC 27853), and gram-positive bacteria Staphylococcus aureus (ATCC 25923) and Streptococcus pyogenes (ATCC 19615), and brain heart infusion (BHI) broth from Difco Laboratories (Detroit, Mich.),
(§2) Bacterial suspensions were prepared by growing the cells in BHI to stationary phase overnight at 37° C. P. aeruginosa was grown with agitation. About 40 ml of overnight cultures were centrifuged, decanted and washed once with 0.05 molar potassium phosphate buffer or 0.05 molar N-2-hydroxyethylpiperazine-N'-2-ethanesulfonic acid (HEPES) buffer, pH 7.8, and resuspended in buffer.
(§3) Optical density readings (OD) were made at 635 nm at 0 minutes and after incubation at 37° C. for 30 minutes for all solutions, and the change (ΔOD) was determined. […] The corrected percent inhibition was calculated by dividing the difference between ΔOD obtained from a Control test without antibiotic and the ΔOD of the test, by the ΔOD of the Control without antibiotic. All readings were corrected by subtracting readings of the appropriate background control.
(§4) A dispersion of the RIND IX compound was prepared by dissolving the RIND compound in N,N-dimethylformamide (16 mg/ml of solvent acidified with 0.1% concentrated sulfuric acid). […]

A further assay concerns S. aureus (gram +). The experiment in a line: inhibition of the reduction of RIND IX (Example 7), S. aureus. Type of assay: cell-based, Staphylococcus aureus (ATCC 25923). The following applies: Staphylococcus aureus, 0.5 h, about 1.7×10^-4 molar, calcium chloride, 635 nm, 30 minutes, 37° C., read-out: Corrected Percent Inhibition. The protocol: as §1, §2, §3, §4
In assay [1] the test system is viable gram-positive and gram-negative bacteria. The experiment in a line: differentiation of viable gram-positive and gram-negative bacteria (outcome in words). The class given is cell-based. The following applies: RIND IX; Example 7. Here is the method: as §1, §2
TERGITOL 7 anionic surfactant was used to differentiate viable bacteria according to the prior art method. Various concentrations of TERGITOL 7 surfactant were mixed with a 10% glucose solution (50 μl), 3-(4,5-dimethyl-2-thiazolyl)-2,5-diphenyl-2N-tetrazolium bromide (MTT) in methanol (25 μl at 5 mg/ml) or a RIND VII dispersion (1.5 ml) and phenazine methosulfate ETA (25 μl at 3 mg/ml methanol). The volume of each test solution was brought to 3 ml with potassium phosphate buffer. A cell suspension (100 μl at about 10^8 cells/ml) was then added. The solutions were incubated at 37° C. for 15 and 30 minutes in the presence of either E. coli, a gram (-) bacterium, or S. aureus, a gram (+) bacterium. The amount of dye formed was then determined visually and graded as follows: 0 indicates no dye formation, +/- indicates faint dye formation, 1+ indicates light dye formation, 2+ indicates moderate dye formation, 3+ indicates strong dye formation, and 4+ indicates very strong dye formation.
Calimycin, a polyether antibiotic, was similarly used with RIND VII in the differentiation of bacteria. Assays were performed as described above, except that 25 μl of 1 molar calcium chloride solution was added to each test solution and the P. aeruginosa response was measured in the presence of 10% yeast extract as the carbon source instead of glucose. The final concentration of calimycin in each test was 10^-3 molar.
The test solutions were prepared by adding the following, in order: 1.2 ml HEPES, 50 μl glucose solution, 1.5 ml RIND VII dispersion, 100 μl antibiotic solution, 100 μl cell suspension and 25 μl ETA solution. Cell control solutions contained all reagents except antibiotics. Background Controls consisted of both buffer and solution controls. The buffer control contained all reagents except antibiotics and cells. The solution control contained all reagents except cells.
Optical density readings (OD) were made at 635 nm at 0 minutes and after incubation at 37° C. for 30 minutes for all solutions, and the change (ΔOD) was determined. Table V below lists the results expressed as corrected percent inhibition of the reduction of RIND VII. The corrected percent inhibition was calculated by dividing the difference between ΔOD obtained from a Control test without antibiotic and the ΔOD of the test, by the ΔOD of the Control without antibiotic. All readings were corrected by subtracting readings of the appropriate background control.
Relative fluorescence was measured using a standard spectrophotometer modified to read at excitation of 540 nm and emission of 620 nm. The change (Δ) in relative fluorescence was determined after 30 minutes at 37° C. for several concentration levels of antibiotic.
Optical density measurements were obtained at 540 nm using a standard spectrophotometer and the change in optical density (ΔOD) was determined after 30 minutes at 37° C. The resulting data are shown in Table VII below for several concentrations of antibiotic. It is clear from the data that the composition of this example was useful for differentiating bacteria. […]

`C[C@H](CCC(=O)O)C[C@H](C)C[C@H](C)C(=O)/C=C(\O)[C@H](C)C[C@H](C)C/C=C/[C@@H](C)[C@@H](O)[C@@H](C)[C@@H](O)C[C@@H]1CC[C@@](C)([C@H]2CC[C@@](C)([C@@H](C)O)O2)O1` [ionomycin]: the “Corrected Percent Inhibition” value in the assay on E. coli (gram -) was “No Inhibition”. In addition, the inhibition at 170 µM in the assay on S. aureus (gram +) came to 59.7%. In addition, the “differentiating gram-positive and gram-negative bacteria” value in assay [1] is “can be used to differentiate gram-positive and gram-negative bacteria”.
